# Experimental data reported in US11058691B2, “Nitric oxide releasing prostaglandin derivatives for treating normal tension glaucoma” (BAUSCH & LOMB INCORPORATED, priority 2016, dated 2021).
# Entries after “also recorded” stand apart in the source; their conditions may differ. Structures can show the parent of a compound that is named as a salt.
# Key:
# [1] = Post hoc analysis of a single-arm open-label Phase 3 clinical study in Japanese subjects: IOP lowering in eyes with baseline IOP ≤19 mm Hg; assay type: in vivo, human; details: Japanese population, baseline IOP ≤19 mm Hg (10 AM); 0.024% solution once daily in the evening; over the 12 months study period
# From the text: The findings reported below derive from a post hoc analysis of the results of a single-arm, multicenter, open-label Phase 3 clinical study that evaluated the IOP lowering effect of a 0.024% solution of Compound (1) dissolved in vehicle in Japanese subjects with open-angle glaucoma (including normal-tension glaucoma, pigmentary glaucoma, or pseudoexfoliative glaucoma) or ocular hypertension.
# Subjects≥20 years instilled one drop of a 0.024% solution of Compound (1) once daily in the evening for 12 months. Intraocular pressure was measured at 10 AM at baseline, and every 4 weeks thereafter for a total of 13 visits. Study and non-study (i.e. fellow) eyes with normal IOP at baseline treated with Compound (1) 0.024% once a day in the evening (n=66 and n=79 for treated study and treated fellow eyes respectively) were identified, and IOP outcomes were summarized using descriptive statistics and two-sided, 95% confidence intervals (CI) for the means.
# Normal IOP was defined as ≤19 mm Hg (mean IOP measured at 10 AM) in the Japanese population, since Asian populations typically have lower IOP than non-Asian populations.
# [2] = Post hoc analysis of two Phase 3 clinical studies: IOP lowering in fellow eyes with baseline IOP ≤21 mm Hg; assay type: in vivo, human; details: for IOP lowering: fellow eyes with normal IOP at baseline (≤21 mm Hg mean diurnal)
# From the text: The findings reported below derive from a post hoc analysis of the results of two multicenter, double-masked, parallel-group Phase 3 clinical studies that evaluated the intraocular pressure (IOP) lowering effect of a 0.024% solution of Compound (1) dissolved in vehicle in subjects with open-angle glaucoma or ocular hypertension.
# Subjects≥18 years instilled one drop of a 0.024% solution of Compound (1) once daily in the evening and vehicle in the morning or timolol maleate 0.5% twice daily for 3 months (active controlled efficacy phase). Thereafter all subjects instilled Compound (1) for a further 9 months in the first study or 3 months in the second study (open-label safety extension phase).
# Intraocular pressure (IOP) was measured at 8 AM, 12 PM, and 4 PM at all visits including baseline, week 2, week 6, month 3, month 6 (both studies) and months 9 and 12 (first study only).
# Non-study (i.e. fellow) eyes with normal IOP at baseline treated with Compound (1) 0.024% once a day in the evening (n=50; treatment for up to 12 months) or with timolol maleate 0.5% twice a day (n=17; treatment for 3 months) were identified, and IOP outcomes were summarized using descriptive statistics and two-sided, 95% confidence intervals (CI) for the means.
# Normal IOP was defined as ≤21 mm Hg (mean diurnal; average of 8 AM, 12 PM and 4 PM measurements) in the primarily Caucasian population.
# [3] = 3 month efficacy phase, Compound (1) 0.024% once daily in the evening, timolol maleate 0.5% twice daily
SMILES,IOP lowering in the study eye [1],IOP lowering in the treated fellow eye [1],"IOP lowering effectiveness (in words) ([2]; eyes with IOP in the normal range (baseline ≤21 mm Hg), 0.024% QD in the evening)","IOP lowering ([2]; 0.024% solution once daily in the evening, over the 12 months study period)","IOP lowering [2, 3]"
"O=C(CCC/C=C\C[C@@H]1[C@@H](CC[C@@H](O)CCc2ccccc2)[C@H](O)C[C@@H]1O)OCCCCO[N+](=O)[O-] (relative stereo) [Compound (1), [1R-[1α(Z), 2α(R*), 3α, 5α]]-7-[3,5-dihydroxy-2-(3-hydroxy-5-phenylpentyl)cyclopentyl]-5-heptenoic acid 4-(nitrooxy)butyl ester]",3.4-4.2 mm Hg,3.2-3.9 mm Hg,appears to be more effective than timolol maleate; also recorded: effective for IOP lowering in eyes with IOP in the normal range,4.2-4.9 mm Hg,4.6-4.9 mm Hg
"CC(C)(C)NC[C@H](O)COc1nsnc1N1CCOCC1 [timolol maleate, reference compound]",–,–,–,–,3.6-4.5 mm Hg
